Entries after “also recorded” stand apart in the source; their conditions may differ.
What was measured:
Veillonella = assay: Vaginal microbiota by quantitative real-time PCR; assay type: in vivo; details: average; for Target DNA/genomic or vaginal DNA, Veillonella: visit V4, patients maintaining recovery
Experimental: (§1) During the clinical trial, described in Example 12, samples of vaginal cleansing were collected and the composition of vaginal microbiota was determined by means of the quantitative real-time PCR.
(§2) With the real-time PCR the DNA samples are amplified with gender- and/or species-specific primers whose target is the 16S rRNA bacterial gene or the 16S-23 S rRNA region.
(§3) In particular, specific probes were used for the Lactobacillus gender, for Gardnerella vaginalis, for Atopobium, for Prevotella and for Veillonella, since they represent the main bacterial groups suffering from modifications in case of bacterial vaginosis.
(§4) Table 28 reports the values of real-time PCR relating to bacterial genders and species quantified in vaginal cleansings of women belonging to the different treatment groups, expressed as total target DNA ng/genomic DNA μg, for microbial species tested for each group at the visit V3 if compared to the visit V1.
(§5) The composition of vaginal microbiota was determined by means of the quantitative real-time PCR technique of patients maintaining their recovery at the visit V4, 30-40 days after the end of the therapy, and the DNA samples amplified with gender- and/or species-specific primers were evaluated by means of the real-time PCR technique.
(§6) Table 29 reports the values of real-time PCR relating to target bacterial genders and species quantified in vaginal rinses of women belonging to the different treatment groups, expressed as total target DNA ng/genomic DNA μg, for microbial species tested for each group at the visit V4 when compared to the values observed at the visit V1 of all treated patients.

Lactobacillus = assay: Vaginal microbiota by quantitative real-time PCR; assay type: in vivo; details: for Target DNA/genomic vaginal DNA, Lactobacillus / Target DNA/genomic or vaginal DNA, Lactobacillus: average; for Target DNA/genomic or vaginal DNA, Lactobacillus: visit V4, patients maintaining recovery; for increase of Lactobacilli concentration: visit V4
Experimental: as §1, §2, §3, §4, §5, §6

Atopobium = assay: Vaginal microbiota by quantitative real-time PCR; assay type: in vivo; details: for Target DNA/genomic vaginal DNA, Atopobium / Target DNA/genomic or vaginal DNA, Atopobium: average; for Target DNA/genomic or vaginal DNA, Atopobium: visit V4, patients maintaining recovery
Experimental: as §1, §2, §3, §4, §5, §6

Gardnerella vaginalis = assay: Vaginal microbiota by quantitative real-time PCR; assay type: in vivo; details: for Target DNA/genomic vaginal DNA, Gardnerella vaginalis / Target DNA/genomic or vaginal DNA, Gardnerella vaginalis: average; for Target DNA/genomic or vaginal DNA, Gardnerella vaginalis: visit V4, patients maintaining recovery
Experimental: as §1, §2, §3, §4, §5, §6

Prevotella = assay: Vaginal microbiota by quantitative real-time PCR; assay type: in vivo; details: for Target DNA/genomic vaginal DNA, Prevotella / Target DNA/genomic or vaginal DNA, Prevotella: average; for Target DNA/genomic or vaginal DNA, Prevotella: visit V4, patients maintaining recovery
Experimental: as §1, §2, §3, §4, §5, §6

[1] = Phase II clinical trial, adverse events; assay type: in vivo, human
Excerpt: The adverse events reported by patients were registered, and the most frequent one was the rifaximin related vulvovaginal itching and burning.
In Table 23 it is reported the percentage of patients belonging to different treatment groups who reported adverse events both systemic and local, vulvovaginal itching and burning related to rifaximin.

[2] = Phase I systemic absorption of rifaximin vaginal tablets in healthy volunteers; assay type: in vivo, human; details: single 100 mg vaginal tablet, 30 minutes to 24 hours; LLOQ 0.5 ng/ml
Experimental: The samples were analyzed by liquid chromatography equipped with mass spectrometry detector, with a lower limit of quantization (LLOQ) of rifaximin concentration 0.5 ng/ml.

[3] = visit V1 (before therapy), Group A: 1 tablet 100 mg × 5 days
[4] = visit V1 (before therapy), Group B: 1 tablet 25 mg × 5 days
[5] = visit V1 (before therapy), Group C: 1 tablet 100 mg × 2 days
[6] = visit V3, Group A: 1 tablet 100 mg × 5 days
[7] = visit V3, Group B: 1 tablet 25 mg × 5 days
[8] = visit V3, Group C: 1 tablet 100 mg × 2 days
[9] = Group A: 1 tablet 100 mg × 5 days
[10] = Group B: 1 tablet 25 mg × 5 days
[11] = Group C: 1 tablet 100 mg × 2 days
[12] = all groups treated with rifaximin, compared to placebo

CO[C@H]1/C=C/O[C@@]2(C)Oc3c(C)c(O)c4c(O)c(c5c(nc6cc(C)ccn65)c4c3C2=O)NC(=O)/C(C)=C\C=C\[C@H](C)[C@H](O)[C@@H](C)[C@@H](O)[C@@H](C)[C@H](OC(C)=O)[C@@H]1C [Rifaximin]
Target DNA/genomic vaginal DNA, Veillonella (Veillonella; [3]): 0.04128 ng/µg | Target DNA/genomic vaginal DNA, Veillonella (Veillonella; [4]): 0.03492 ng/µg | Target DNA/genomic vaginal DNA, Veillonella (Veillonella; [5]): 0.2214 ng/µg | Target DNA/genomic vaginal DNA, Veillonella (Veillonella; [6]): 0.007807 ng/µg | Target DNA/genomic vaginal DNA, Veillonella (Veillonella; [7]): 0.01761 ng/µg | Target DNA/genomic vaginal DNA, Veillonella (Veillonella; [8]): 0.005642 ng/µg | Target DNA/genomic or vaginal DNA, Veillonella (Veillonella; [9]): 0 ng/µg | Target DNA/genomic or vaginal DNA, Veillonella (Veillonella; [10]): 0 ng/µg | Target DNA/genomic or vaginal DNA, Veillonella (Veillonella; [11]): 0.2748 ng/µg | change of Lactobacilli by real-time PCR (Lactobacillus; all groups treated with rifaximin): Lactobacilli increase | Target DNA/genomic vaginal DNA, Lactobacillus (Lactobacillus; [3]): 16.83 ng/µg | Target DNA/genomic vaginal DNA, Lactobacillus (Lactobacillus; [4]): 10.06 ng/µg | Target DNA/genomic vaginal DNA, Lactobacillus (Lactobacillus; [5]): 12.66 ng/µg | Target DNA/genomic vaginal DNA, Lactobacillus (Lactobacillus; [6]): 20.09 ng/µg | Target DNA/genomic vaginal DNA, Lactobacillus (Lactobacillus; [7]): 33.78 ng/µg | Target DNA/genomic vaginal DNA, Lactobacillus (Lactobacillus; [8]): 25.36 ng/µg | Target DNA/genomic or vaginal DNA, Lactobacillus (Lactobacillus; [9]): 21.3 ng/µg | Target DNA/genomic or vaginal DNA, Lactobacillus (Lactobacillus; [10]): 39.57 ng/µg | Target DNA/genomic or vaginal DNA, Lactobacillus (Lactobacillus; [11]): 8.959 ng/µg | increase of Lactobacilli concentration (Lactobacillus; group A: tablet 100 mg rifaximin for five days): twentyfold | increase of Lactobacilli concentration (Lactobacillus; group B: tablet 25 mg rifaximin for five days): fortyfold | increase of Lactobacilli concentration (Lactobacillus; group C: tablet 100 mg rifaximin for two days): eightfold | change of Atopopium concentration by real-time PCR (Atopobium; [12]): reduction | Target DNA/genomic vaginal DNA, Atopobium (Atopobium; [3]): 93.07 ng/µg | Target DNA/genomic vaginal DNA, Atopobium (Atopobium; [4]): 108.2 ng/µg | Target DNA/genomic vaginal DNA, Atopobium (Atopobium; [5]): 170.4 ng/µg | Target DNA/genomic vaginal DNA, Atopobium (Atopobium; [6]): 61.46 ng/µg | Target DNA/genomic vaginal DNA, Atopobium (Atopobium; [7]): 48.8 ng/µg | Target DNA/genomic vaginal DNA, Atopobium (Atopobium; [8]): 59.99 ng/µg | Target DNA/genomic or vaginal DNA, Atopobium (Atopobium; [9]): 5.348 ng/µg | Target DNA/genomic or vaginal DNA, Atopobium (Atopobium; [10]): 28.25 ng/µg | Target DNA/genomic or vaginal DNA, Atopobium (Atopobium; [11]): 139.9 ng/µg | change of Gardnerella vaginalis concentration by real-time PCR (Gardnerella vaginalis; [12]): reduction | Target DNA/genomic vaginal DNA, Gardnerella vaginalis (Gardnerella vaginalis; [3]): 34.92 ng/µg | Target DNA/genomic vaginal DNA, Gardnerella vaginalis (Gardnerella vaginalis; [4]): 119.4 ng/µg | Target DNA/genomic vaginal DNA, Gardnerella vaginalis (Gardnerella vaginalis; [5]): 66.74 ng/µg | Target DNA/genomic vaginal DNA, Gardnerella vaginalis (Gardnerella vaginalis; [6]): 23.56 ng/µg | Target DNA/genomic vaginal DNA, Gardnerella vaginalis (Gardnerella vaginalis; [7]): 66.26 ng/µg | Target DNA/genomic vaginal DNA, Gardnerella vaginalis (Gardnerella vaginalis; [8]): 29.44 ng/µg | Target DNA/genomic or vaginal DNA, Gardnerella vaginalis (Gardnerella vaginalis; [9]): 3.067 ng/µg | Target DNA/genomic or vaginal DNA, Gardnerella vaginalis (Gardnerella vaginalis; [10]): 17.57 ng/µg | Target DNA/genomic or vaginal DNA, Gardnerella vaginalis (Gardnerella vaginalis; [11]): 75.09 ng/µg | change of Prevotella concentration by real-time PCR (Prevotella; [12]): reduction | Target DNA/genomic vaginal DNA, Prevotella (Prevotella; [3]): 18.8 ng/µg | Target DNA/genomic vaginal DNA, Prevotella (Prevotella; [4]): 18.47 ng/µg | Target DNA/genomic vaginal DNA, Prevotella (Prevotella; [5]): 17.91 ng/µg | Target DNA/genomic vaginal DNA, Prevotella (Prevotella; [6]): 12.2 ng/µg | Target DNA/genomic vaginal DNA, Prevotella (Prevotella; [7]): 3.712 ng/µg | Target DNA/genomic vaginal DNA, Prevotella (Prevotella; [8]): 7.248 ng/µg | Target DNA/genomic or vaginal DNA, Prevotella (Prevotella; [9]): 0.04296 ng/µg | Target DNA/genomic or vaginal DNA, Prevotella (Prevotella; [10]): 2.345 ng/µg | Target DNA/genomic or vaginal DNA, Prevotella (Prevotella; [11]): 54 ng/µg | Patients with adverse events [1, 9]: 35.7% | Patients with vulvovaginal burning [1, 9]: 3.6% | Patients with vulvovaginal itching [1, 9]: 25.0% | Patients with adverse events [1, 10]: 34.6% | Patients with vulvovaginal burning [1, 10]: 19.2% | Patients with vulvovaginal itching [1, 10]: 19.2% | Patients with adverse events [1, 11]: 7.7% | Patients with vulvovaginal burning [1, 11]: 3.8% | Patients with vulvovaginal itching [1, 11]: 3.8% | rifaximin related vulvovaginal candidiasis during treatment ([1]; any of the treated groups): none of the treated groups showed any case of rifaximin-related vulvovaginal candidiasis; also recorded: No rifaximin related vulvovaginal candidiasis | adverse event in the clinical study ([1]; patients treated with 25 mg and 100 mg rifaximin in vaginal tablets): did not show any particular adverse event | rifaximin plasma concentrations [2]: under the analytical detection limit
